Results: PMC6148290, “Endogenous metabolites of vitamin E limit inflammation by targeting 5-lipoxygenase” (Nature Communications, 2018)

What was measured:
[1] = tested on: zymosan-induced murine peritonitis; experiment: Zymosan-induced peritonitis in mice; type: in vivo, mouse; conditions: 10 mg/kg i.p.; 30 min post zymosan; ELISA
Experimental: Mice were killed by inhalation of CO2 after another 30 min for determination of LTC4 levels and vascular permeability and after 4 h for the analysis of LTB4 levels, lipidomic profiles and immune cell infiltration. Cell infiltration and lipid mediator profiles during resolution were studied after 18 h. Peritoneal exudates were collected and cells counted after vital trypan blue staining. LTC4, LTB4, and PGE2 were analyzed in the exudate by enzyme immunoassays (Enzo Life Sciences, Lörrach, Germany) according to manufacturer's instructions. To assess vascular permeability, Evans blue dye (40 mg/kg in saline, 0.3 ml; Sigma-Aldrich) was injected into the tail vain immediately before the induction of peritonitis. Exudates were centrifuged (3000 × g, 5 min) and the absorbance of the supernatants was measured at 610 nm using a Beckman Coulter DU730 spectrophotometer. To investigate the effect of α-T (1a) on the accumulation of α-T-13'-COOH (4a) in infiltrated leukocytes after peritonitis has been established, vehicle or α-[…].) were given 1 h before and/or 4 h post zymosan injection, and mice were killed after another 1.5 h. Leukocytes were obtained from peritoneal exudates by centrifugation (1200 × g, 10 min, 4 °C).

[2] = molecular target: T1, 5-LO (Homo sapiens, UniProt P09917); experiment: Activity of purified human recombinant 5-LO (cell-free); type: biochemical; set-up: made in house; host or cells: E. coli Bl21 (DE3); conditions: cell-free; mean ± s.e.m., n = 3; read-out: IC50, human recombinant 5-LO
T1 sequence (P09917 1-674): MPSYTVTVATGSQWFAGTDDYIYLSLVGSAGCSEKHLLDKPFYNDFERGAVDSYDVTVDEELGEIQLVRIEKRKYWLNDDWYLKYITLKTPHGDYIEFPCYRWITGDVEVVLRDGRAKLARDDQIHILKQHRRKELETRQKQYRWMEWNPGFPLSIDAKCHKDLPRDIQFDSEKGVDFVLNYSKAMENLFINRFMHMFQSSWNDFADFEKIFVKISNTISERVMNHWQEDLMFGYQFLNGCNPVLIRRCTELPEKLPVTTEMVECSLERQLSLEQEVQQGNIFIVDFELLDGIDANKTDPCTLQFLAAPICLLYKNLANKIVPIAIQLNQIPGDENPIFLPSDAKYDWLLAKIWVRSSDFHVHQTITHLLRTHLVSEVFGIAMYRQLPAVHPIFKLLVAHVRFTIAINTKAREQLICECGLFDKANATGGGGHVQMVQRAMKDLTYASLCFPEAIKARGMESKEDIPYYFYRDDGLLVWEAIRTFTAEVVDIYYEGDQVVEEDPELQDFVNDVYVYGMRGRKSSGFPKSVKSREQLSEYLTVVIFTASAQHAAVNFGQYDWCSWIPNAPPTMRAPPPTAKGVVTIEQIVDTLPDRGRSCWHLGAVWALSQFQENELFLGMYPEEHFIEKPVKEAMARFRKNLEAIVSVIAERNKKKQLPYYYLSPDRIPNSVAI
Experimental: E. coli Bl21 (DE3) cells were transformed with pT3–5LO plasmid to express human recombinant 5-LO, which was purified by affinity chromatography on an ATP-agarose column. In brief, E. coli was lysed in 50 mM triethanolamine/HCl pH 8.0 plus EDTA (5 mM), soybean trypsin inhibitor (60 µg/ml), phenylmethanesulphonyl fluoride (1 mM), dithiothreitol (1 mM), and lysozyme (1 mg/ml). After sonication (3 × 15 s), the homogenate was centrifuged at 10,000 × g for 15 min and the supernatant again at 40,000 × g for 70 min at 4 °C. The supernatant was applied to an ATP-agarose column (Sigma-Aldrich), and the column was washed with (i) PBS pH 7.4, 1 mM EDTA, (ii) 50 mM phosphate buffer pH 7.4, 0.5 M NaCl, 1 mM EDTA, and (iii) 50 mM phosphate buffer pH 7.4, 1 mM EDTA. 5-LO was eluted with 50 mM phosphate buffer pH 7.4, 1 mM EDTA, 20 mM ATP.
Purified 5-LO (0.5 µg) in PBS pH 7.4 containing EDTA (1 mM) and ATP (1 mM) was pre-incubated with LCMs for 10 min at 4 °C, pre-warmed for 30 s at 37 °C and 5-LO product formation was started by addition of AA (Sigma-Aldrich; 20 µM if not indicated otherwise) plus CaCl2 (2 mM). […] AA was added after incubation for 5 min on ice.

[3] = tested on: peripheral blood mononuclear cells; experiment: Cell viability of PBMC (MTT assay); type: cell-based, human; conditions: at 1 and 10 µM (one entry for both); 24 h; n.i. no inhibition
Experimental: The formazan product was solubilized with SDS (10% in 20 mM HCl), and absorbance was measured at 570 nm using a Multiskan Spectrum microplate reader (Thermo Fisher Scientific).

[4] = molecular target: T2, 12-LO (Homo sapiens, UniProt P18054); experiment: 12-LO product formation in A23187/AA-activated PMNL; type: cell-based; conditions: at 3 µM; mean ± s.e.m., n = 3; n.i. no inhibition
T2 construct: 12-HETE (12-LO product from platelets in PMNL preparations); endogenous in cells; host or cells: platelets contaminating human PMNL preparations
T2 sequence (P18054 1-663): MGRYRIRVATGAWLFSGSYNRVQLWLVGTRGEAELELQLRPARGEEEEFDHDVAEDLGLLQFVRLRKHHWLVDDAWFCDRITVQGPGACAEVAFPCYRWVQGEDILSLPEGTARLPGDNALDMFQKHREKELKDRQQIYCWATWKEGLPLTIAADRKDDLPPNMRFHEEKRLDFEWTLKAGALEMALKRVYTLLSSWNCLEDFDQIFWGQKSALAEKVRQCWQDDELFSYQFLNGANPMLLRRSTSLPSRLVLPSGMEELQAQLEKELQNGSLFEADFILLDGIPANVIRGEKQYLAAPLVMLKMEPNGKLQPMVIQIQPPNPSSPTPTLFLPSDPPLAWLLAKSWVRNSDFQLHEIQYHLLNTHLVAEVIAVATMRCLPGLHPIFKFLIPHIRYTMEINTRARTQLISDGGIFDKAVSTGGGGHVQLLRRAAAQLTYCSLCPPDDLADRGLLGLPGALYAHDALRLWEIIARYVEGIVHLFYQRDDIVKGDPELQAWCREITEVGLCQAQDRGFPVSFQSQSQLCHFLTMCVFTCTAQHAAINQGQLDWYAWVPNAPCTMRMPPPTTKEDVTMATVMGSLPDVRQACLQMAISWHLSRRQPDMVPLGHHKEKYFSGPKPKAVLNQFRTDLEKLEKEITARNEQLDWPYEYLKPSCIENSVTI
Experimental: (§1) Cells were washed and medium was exchanged. Freshly isolated PMNL (1 × 10^7) and stably transfected HEK-293 (1 × 10^6) cells were suspended in PBS pH 7.4 containing 1 mg/ml glucose and 1 mM CaCl2. […] A23187- and A23187/AA-treated PMNL and A23187/AA-treated HEK-293 (5-LO_wt), HEK-293 (5-LO_3W) and HEK-293 (5-LO_Arg101Asp) cells produced 135 ± 21, 636 ± 112, 300 ± 59, 133 ± 29, 55 ± 9 ng 5-LO products, respectively. PMNL synthesized 29 ± 6 ng 12-HETE and 97 ± 23 ng 15-HETE when challenged with A23187/AA. 5-LO products from monocytes were analyzed by UPLC-MS/MS.

[5] = molecular target: T1, 5-LO; experiment: 5-LO product formation in activated PMNL; type: cell-based; set-up: Freshly isolated PMNL (1 × 10^7); endogenous in cells; host or cells: human PMNL freshly isolated from leukocyte concentrates; conditions: cell-based; mean ± s.e.m., n = 3; read-out: IC50, activated PMNL (5-LO)
Excerpt: Human PMNL, monocytes, PBMC, and platelets were freshly isolated from leukocyte concentrates. The protocols for experiments with human blood and blood cells were approved by the ethical commission of the Friedrich-Schiller-University Jena. […] PMNL were recovered from the pellet after hypotonic lysis of erythrocytes. Platelets were obtained from the supernatant and washed with PBS pH 5.9/0.9% NaCl (1:1). […]

[6] = cited from earlier work; for plasma levels in humans: ref Mangialasche et al., 2012
[7] = tested on: 15-LO; experiment: 15-LO product formation in A23187/AA-activated PMNL; type: cell-based, human; conditions: at 3 µM; mean ± s.e.m., n = 3; n.i. no inhibition
Experimental: as §1

[8] = tested on: intracellular Ca^2+; experiment: Intracellular Ca2+ in fMLP-stimulated PMNL; type: cell-based, human
Experimental: PMNL (1 × 10^6) were incubated with Fura-2/AM (Thermo Fisher Scientific; 2 nmol) for 45 min at 37 °C, washed, resuspended in PBS pH 7.4 plus 1 mg/ml glucose and transferred to fluorescene 96-well microplates (Greiner). After pre-incubation with compounds for 10 min, 1 mM Ca^2+ was added, and cells were stimulated with fMLP (1 µM) for another 10 min. Intracellular Ca^2+ concentrations were determined using a thermally (37 °C) controlled NOVOstar fluorescence microplate reader [BMG Labtech, Ortenberg, Germany; emission at 510 nm, excitation at 340 nm (Ca^2+-bound Fura-2) and 380 nm (free Fura-2)][17]. The maximal fluorescence signal was recorded after lysis of […] with Triton X-100, and the minimal fluorescence was assessed by adding 20 mM EDTA to chelate Ca^2+. The difference in the signal ratio obtained with Triton X-100 and Triton X-100 plus 20 mM EDTA was set to 100% for each experiment.

[9] = DPPH radical scavenging
Experimental: Compounds were incubated with 2,2-diphenyl-1-picrylhydrazyl (DPPH, Sigma-Aldrich; […]) in ethanol for 30 min. Absorbance was measured at 520 nm using a Multiskan Spectrum Microplate Reader (Thermo Fisher Scientific)[35]. Ascorbic acid (Sigma-Aldrich; 50 µM), used as control, scavenged DPPH radicals by 82.4 ± 1.9%.

[10] = Water solubility (statement); type: physicochemical; conditions: authors' statement in reply to reviewer
[11] = molecular target: T3, human recombinant LTC4 synthase (LTC4S) (Homo sapiens, UniProt Q16873); experiment: LTC4 synthase activity; type: biochemical; conditions: 10 µM; reference inhibitor
T3 construct: expressed in transfected cells; host or cells: HEK-293 cells stably expressing LTC4S (microsomal membranes)
T3 sequence (Q16873 1-150): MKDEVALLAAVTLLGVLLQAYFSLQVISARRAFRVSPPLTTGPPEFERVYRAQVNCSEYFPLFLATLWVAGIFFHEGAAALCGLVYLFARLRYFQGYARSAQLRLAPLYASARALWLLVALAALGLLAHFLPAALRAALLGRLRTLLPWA
Experimental: To investigate the effect of LCMs on LTC4S activity, we used microsomal membranes from HEK-293 cells stably expressing LTC4S[70]. […] The conversion of LTA4 to LTC4 methyl esters was initiated by addition of LTA4 methyl ester (Cayman Chemicals; 1 µM). After 10 min at 4 °C, the reaction was terminated by ice-cold methanol (one volume), and LTC-d5 methyl ester (5 ng; Cayman Chemicals) was added as internal standard. LTC4 was extracted and analyzed by UPLC-MS/MS as described for lipid mediators. Vehicle (DMSO)-treated microsomal membranes produced 7.1 ± 0.5 nmol LTC4.

Compound	IC50 [2] [nM]	12-LO product formation/PMNL, residual activity [4]	IC50 [5] [nM]	Cell viability/peripheral blood mononuclear cells, residual viability [3]	15-LO product formation/PMNL, residual activity [7]	further results
C/C(=C\CC/C(C)=C/CC/C(C)=C/CC[C@]1(C)CCc2cc(O)cc(C)c2O1)CO [2h]	150 ± 50	n.i.	1260 ± 330	n.i.	n.i.	–
C/C(=C\CC/C(C)=C/CC[C@]1(C)CCc2cc(O)cc(C)c2O1)CC/C=C(\C)C(=O)O [4h, garcinoic acid]	–	75.1 ± 12.1 % of control	–	n.i.	128.6 ± 42.3 % of control	concentration at which intracellular Ca^2+-influx was significantly reduced [8]: ≥ 1 µM; radical scavenging as measure for antioxidant activity ([9]; DPPH): only evident at micromolar; water solubility [10]: poor
O=C1O[C@H]([C@@H](O)CO)C(O)=C1O [Ascorbic acid, reference compound]	–	–	–	–	–	DPPH radicals scavenged ([9]; 50 µM, control): 82.4 ± 1.9%
CC(C)c1ccc2c(c1)c(SC(C)(C)C)c(CC(C)(C)C(=O)O)n2Cc1ccc(Cl)cc1 [MK-886, reference compound]	–	–	–	–	–	suppression of LTC4 formation [11]: 95.6 ± 0.9%

The next lines start with results.

IC50 [2] [nM]	12-LO product formation/PMNL, residual activity [4]	IC50 [5] [nM]	Compound	Cell viability/peripheral blood mononuclear cells, residual viability [3]	15-LO product formation/PMNL, residual activity [7]	further results
> 1000	n.i.	808000 ± 159000	Cc1c(C)c2c(c(C)c1O)CC[C@@](C)(CCC[C@H](C)CCC[C@H](C)CCCC(C)C)O2 [1a, α-tocopherol]	n.i.	n.i.	LTC4 levels in the exudate [1]: significantly less effective; plasma levels in humans [6]: 25 to 35 µM; hepatic tissue concentrations ([6]; ref Nagita et al., 1997): 70 to 530 nmol/g; human plasma level ([6]; ref Nagita et al., 1997): 14 to 27 µM
310 ± 100	n.i.	85000 ± 5000	Cc1cc(O)cc2c1O[C@](C)(CCC[C@H](C)CCC[C@H](C)CCCC(C)C)CC2 [1d]	n.i.	86.6 ± 15.8 % of control	plasma levels in humans [6]: 0.01 µM
350 ± 40	84.7 ± 4.7 % of control	190 ± 50	Cc1c(C)c2c(c(C)c1O)CC[C@@](C)(CCCC(C)CCCC(C)CCCC(C)CO)O2 (some centres unmarked) [2a]	n.i.	156.7 ± 26.2 % of control	–
120 ± 40	84.8 ± 7.8 % of control	540 ± 20	Cc1cc(O)cc2c1O[C@](C)(CCC[C@H](C)CCC[C@H](C)CCCC(C)CO)CC2 (some centres unmarked) [2d]	n.i.	142.8 ± 13.9 % of control	–
